Experimental data reported in patent US8349851B2, “JAK kinase modulating compounds and methods of use thereof” (Ambit Biosciences Corp., priority 2009, dated 2013).
Like-named read-outs stand apart in the source and are kept apart here.

Tests used:
[1] = molecular target: T1, JAK2 (Homo sapiens, UniProt O60674); experiment: Competition binding assay, JAK2; conditions: read-out: Binding Assay: JAK2 (active_KD)
T1 construct: made in house
In short: (§1)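 JAK2 and JAK3 were each tested individually as T7 phage fusions or HEK-293-expressed DNA-tagged kinases, competing with compound for bead-immobilized biotinylated ligand. Eluted kinase was measured by quantitative PCR. Kd values came from eleven serial threefold dilutions.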

[2] = molecular target: T2, JAK3 (Homo sapiens, UniProt P52333); experiment: Competition binding assay, JAK3; conditions: read-out: Binding Assay: JAK3 (active_KD, ENZ)
T2 construct: made in house
T2 sequence (P52333 822-1111 limits assumed): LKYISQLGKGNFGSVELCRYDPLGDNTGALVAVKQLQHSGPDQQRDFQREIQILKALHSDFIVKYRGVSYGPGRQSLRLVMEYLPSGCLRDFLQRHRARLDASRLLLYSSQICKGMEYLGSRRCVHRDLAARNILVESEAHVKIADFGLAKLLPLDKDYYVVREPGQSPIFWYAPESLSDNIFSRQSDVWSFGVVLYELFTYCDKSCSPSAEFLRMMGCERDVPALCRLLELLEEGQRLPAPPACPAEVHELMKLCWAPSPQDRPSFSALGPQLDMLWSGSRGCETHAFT
In short: as §1

[3] = test system: csTF-1 cells (GM-CSFR/JAK2/STAT5 pathway); experiment: csTF-1 cell-based reporter assay; set-up: species or system human; conditions: GM-CSF at 2 ng/mL, 4 hours, read-out: Cell Assay: CS0017: CS TF-1 reporter assay: IC50
In short: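 GM-CSF-dependent human csTF-1 cells with STAT5-driven beta-lactamase reporter (irf1 element), 2×10^5 cells/well, given serial compound dilutions plus 2 ng/mL GM-CSF in 0.5% DMSO for 4 hours at 30° C. Substrate added 2 h at room temperature; blue (460 nm)/green (530 nm) fluorescence read at 409 nm excitation.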

[4] = molecular target: T3, AuroraB (Homo sapiens, UniProt Q96GD4); experiment: Competition binding assay, Aurora B
T3 construct: made in house
T3 sequence (Q96GD4 whole entry): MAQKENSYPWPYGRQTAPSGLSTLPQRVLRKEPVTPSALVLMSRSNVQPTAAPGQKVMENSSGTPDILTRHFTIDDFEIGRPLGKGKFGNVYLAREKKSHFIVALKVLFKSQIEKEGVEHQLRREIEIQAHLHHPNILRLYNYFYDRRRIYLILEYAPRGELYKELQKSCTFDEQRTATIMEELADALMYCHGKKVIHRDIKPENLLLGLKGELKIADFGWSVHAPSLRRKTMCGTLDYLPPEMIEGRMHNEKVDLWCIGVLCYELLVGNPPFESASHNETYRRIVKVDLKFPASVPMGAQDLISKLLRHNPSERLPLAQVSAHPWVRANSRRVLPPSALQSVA
From the text: Methods for determining binding constant against Aurora B kinase are known to one of skill in the art. Exemplary methods are described in U.S. provisional application No. 61/294,413, and Fabian et al., Nature Biotechnology 2005, 23,329-336.
Competition binding assays used herein were developed, validated and performed as described in Fabian et al., Nature Biotechnology 2005, 23,329-336. Kinases were produced as fusions to T7 phage (See, Fabian et al. or WO04/015142) or alternatively, the kinases were expressed in HEK-293 cells and subsequently tagged with DNA for PCR detection (See, WO08/005310). For the binding assays, streptavidin-coated magnetic beads were treated with biotinylated affinity ligands for 30 min at rt to generate affinity resins. The liganded beads were blocked with excess biotin and washed with blocking buffer (SeaBlock (Pierce), 1% BSA, 0.05% Tween 20, 1 mM DTT) to remove unbound ligand and to reduce non-specific binding. […] Test compounds were prepared as 100× stocks in DMSO and rapidly diluted into the aqueous environment. DMSO was added to control assays lacking a test compound. Primary screen interactions were performed in polypropylene 384-well plates in a final volume of 34 μL, while Kd determinations were performed in polystyrene 96-well plates in a final volume of 135 μL. […] The kinase concentration in the eluates was measured by quantitative PCR. Each kinase was tested individually against each compound. Kds were determined using eleven serial threefold dilutions. A selectivity score, which is a quantitative measure of selectivity of a compound against a panel of enzymes, may be calculated for a compound by dividing the number of enzymes for which a compound meets a set criteria, (for example, a binding constant of 100 nM or less), by the total number of enzymes tested.

[5] = test system: HEL 92.1.7 cells; experiment: In vivo efficacy study in the mouse HELV617F liquid tumor model (survival); conditions: CB17 SCID mice, PO BID, 21 day dosing; Ambit Internal Compound 50 or 60 mg/kg, compound of Formula I 60 mg/kg, TGEN101348 120 mg/kg
Experimental: In Vivo Efficacy Study in the Mouse HELV617F Liquid Tumor Mouse Model
This study was conducted to determine the effect of a selected compound of Formula I on tumor progression and survival. CB 17 SCID mice (Charles River Labs) were pretreated with cyclophosphamide IP QD at 150 mg/kg for two consecutive days before being injected with cells. On Day 0, 75 mice were inoculated IV with 5e6 HEL 92.1.7 cells suspended in sterile saline. Animals were weighed on Day 8, and assigned to groups with similar mean body weights and similar standard deviations from the mean. Animals were dosed on Day 8 for a 21 day dosing period. Treatment groups were as follows (10 animals per group): First group was administered vehicle (Pharmatek #6), PO, BID; a second group was administered Ambit Internal Compound A prepared in Pharmatek #6, at 50 mg/kg PO, BID; and a third group was administered TGEN101348 prepared in Pharmatek #6, at 120 mg/kg PO, BID. An untreated group of 10 animals also served as control.
Another study was conducted using the same protocol, with the same controls and the following treatment groups: Ambit Internal Compound A prepared in Pharmatek #6 administered at 60 mg/kg BID and a selected compound of Formula I prepared in Pharmatek #6 at 60 mg/kg BID.

[6] = test system: TEL-JAK cells; experiment: In vivo efficacy study in the mouse TELJAK model (survival); conditions: CB17 SCID mice, BID for two weeks; Ambit Internal Compound 50 mg/kg BID, TGEN101348 100 mg/kg BID
Experimental: In Vivo Efficacy Study in the Mouse TELJAK Mouse Model
This study was conducted to determine the effect of a selected compound of Formula I on tumor progression and survival. CB17 SCID mice (Harlan Laboratories) were inoculated with 5e5 TEL-JAK cells via tail vein on day 0. Cells were allowed to establish in the animal, and on day 3, dosing was initiated as follows: Vehicle (Pharmatek #6) administered 50 uL at BID to a first group, Ambit Internal Compound prepared in Pharmatek #6 and administered at 50 mg/kg BID to a second group and TGEN101348 prepared in Pharmatek #6 to a third group at 100 mg/kg BID. Each treatment group (16 animals per group) received a twice daily dosing for a two week period. An untreated group of 10 animals also served as control.
A second study was conducted using the same protocol, with the same controls and the following treatment groups: Ambit Internal Compound A prepared in Pharmatek #6 administered at 60 mg/kg BID and a selected compound of Formula I prepared in Pharmatek #6 at 60 mg/kg BID.

T1 sequence (O60674 849-1124 limits assumed): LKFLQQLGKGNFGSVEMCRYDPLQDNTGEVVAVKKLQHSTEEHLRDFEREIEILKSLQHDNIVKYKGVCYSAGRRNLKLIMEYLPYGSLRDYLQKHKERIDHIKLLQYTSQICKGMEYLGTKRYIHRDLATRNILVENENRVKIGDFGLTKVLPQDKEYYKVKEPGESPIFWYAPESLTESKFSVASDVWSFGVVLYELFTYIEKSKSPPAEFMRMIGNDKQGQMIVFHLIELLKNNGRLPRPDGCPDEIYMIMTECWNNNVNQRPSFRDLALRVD

`Cc1cc(Nc2nc(C(O)c3ccc(F)cc3)nc3cc(OC4CCNCC4)ccc23)n[nH]1` (stereo not shown) [Example 41, (4-fluorophenyl)(4-(5-methyl-1H-pyrazol-3-ylamino)-7-(piperidin-4-yloxy)quinazolin-2-yl)methanol] was tested, and the Kd [1] was no more than 1 nM, the Kd [2] was no more than 10 nM and the IC50 ([3]; Homo sapiens) was 100 to 500 nM. It also gave a Kd [4] greater than 200 nM.
Molecule `Cc1cc(Nc2nc(C(F)(F)c3ccc(F)cc3)nc3cc(CS(C)(=O)=O)ccc23)n[nH]1` [Example 50, 2-(difluoro(4-fluorophenyl)methyl)-N-(5-methyl-1H-pyrazol-3-yl)-7-(methylsulfonylmethyl)quinazolin-4-amine] has a Kd [1] of no more than 1 nM, a Kd [2] of no more than 10 nM and an IC50 ([3]; Homo sapiens) of no more than 100 nM. The Kd [4] was greater than 200 nM.
Molecule `CCOCc1ccc2c(Nc3cc(C)[nH]n3)nc(C(F)(F)c3ccc(F)cc3)nc2c1` [Example 51, 2-(Difluoro(4-fluorophenyl)methyl)-7-(ethoxymethyl)-N-(5-methyl-1H-pyrazol-3-yl)quinazolin-4-amine] has a Kd [1] of no more than 1 nM, a Kd [2] of no more than 10 nM and an IC50 ([3]; Homo sapiens) of no more than 100 nM. The Kd [4] was 50 to 200 nM.
In the case of `Cc1cnc(Nc2ccc(OCCN3CCCC3)cc2)nc1Nc1cccc(S(=O)(=O)NC(C)(C)C)c1` [TGEN101348], the “increased life span (ILS)” value [5] is reported as “approximately 5%” and the “increased life span (ILS)” value [6] is reported as 30%.
Molecule `Cc1cc(Nc2nc(C(O)(c3ccc(F)cc3)c3ccc(F)cc3)nc3ccccc23)n[nH]1` [bis-(4-fluoro-phenyl)-[4-(5-methyl-1H-pyrazol-3-ylamino)-quinazolin-2-yl]-methanol] has a Kd [1] greater than 10 nM, a Kd [2] greater than 100 nM and an IC50 ([3]; Homo sapiens) greater than 500 nM. It also gave a Kd [4] greater than 200 nM.
Work on “(4-(1H-pyrazol-3-ylamino)quinazolin-2-yl)bis(4-fluorophenyl)methanol [Example 48]” yielded a Kd [1] greater than 10 nM, a Kd [2] greater than 100 nM and an IC50 [3] greater than 500 nM. It also gave a Kd [4] greater than 200 nM.
